Experimental findings from ChEMBL document CHEMBL3507680, “University of Dundee, Gates Library screen for HepG2 cell viability” are described below.

This data set is described as follows: Human HepG2 cell viability assay in 384 well format. Also on record: dose 125 nL, time 70.5 hour; concentration not given beside the values. It is filed as toxicity, cell-based. Particulars: HepG2 cells, read-out: Inhibition.

Regarding `Cc1nc(C)n(CC2CCCN2CC(=O)Nc2c(C)n[nH]c2C)n1` (configuration not stated), the cytotoxicity at 70.5 h was -1.18%.

As to `COCc1ccccc1CNC(=O)CN1CCCC1c1noc(C)n1` (configuration not stated), the cytotoxicity at 70.5 h was -2.27%.

As to `Cc1cccc(OCCNC(=O)CN2CCCC2c2noc(C)n2)c1` (configuration not stated), the cytotoxicity at 70.5 h is -4.91%.

In the case of `Cn1cc(Cl)cc1C(=O)N1CCN(Cc2cccs2)CC1`, the cytotoxicity at 70.5 h is -12.6%.

For `Cc1oc(C)c(C(=O)NCc2cccnc2)c1C`, the cytotoxicity at 70.5 h was -14.1%.

As to `Cc1oc(C)c(C(=O)NCc2ccccc2CN(C)C)c1C`, the cytotoxicity at 70.5 h was 16.8%.

With `Cc1ccc(C(=O)NCCCNc2ccc(C(F)(F)F)cn2)cc1`, the cytotoxicity at 70.5 h is -9.05%.

On to `O=C(NCCCNc1ccc(C(F)(F)F)cn1)c1ccccc1`, for which the cytotoxicity at 70.5 h is -8.08%.

Regarding `Nc1nccnc1C(=O)NCCCNc1ccc(C(F)(F)F)cn1`, the cytotoxicity at 70.5 h was 2.59%.

Consider `CN(C)c1ccc(C(=O)NCCCNc2ccc(C(F)(F)F)cn2)cc1`, for which the cytotoxicity at 70.5 h was -13%.

In the case of `CC(C)C(=O)NCCNC(=O)CCOc1cccc(F)c1`, the cytotoxicity at 70.5 h was -11.3%.

As to `CCOc1ncccc1CNC(=O)c1c(C)oc(C)c1C`, the cytotoxicity at 70.5 h is -9.43%.

In the case of `CCCc1nnc(NC(=O)Cc2c(C)nc(C)[nH]c2=O)s1`, the cytotoxicity at 70.5 h was -6.43%.

Regarding `CC(=O)N(Cc1noc(C)n1)C1CCN(Cc2cnc(C)s2)C1` (configuration not stated), the cytotoxicity at 70.5 h was -4.39%.

On to `Cc1ccc(C(=O)N2CCCN(Cc3cscn3)CC2)o1`, for which the cytotoxicity at 70.5 h is -6.95%.

As to `CC(C)c1nn(C)c(N(C)C)c1CNCC(O)c1cccc(F)c1` (configuration not stated), the cytotoxicity at 70.5 h is -10%.

Consider `Cc1nn(C)c(N2CCOCC2)c1CNCc1ccoc1C`, for which the cytotoxicity at 70.5 h was -11.3%.

For `CC(C)COC(C)C(=O)NCc1ccc(F)cc1` (configuration not stated), the cytotoxicity at 70.5 h was -19.1%.

For `O=C(NCCC(=O)N1CCCc2ccccc21)c1c(F)cccc1F`, the cytotoxicity at 70.5 h was -12.4%.

In the case of `CC(C)COC(C)C(=O)NCc1ccccc1` (configuration not stated), the cytotoxicity at 70.5 h is -5.1%.

Regarding `CCc1nc(CN2CCCC(NCc3nnc(C4CC4)n3C)C2)no1` (configuration not stated), the cytotoxicity at 70.5 h was -8.85%.

Turning to `CN(C)c1cc(CNC(=O)c2cnccn2)ccn1`, the cytotoxicity at 70.5 h was -8.01%.

Turning to `CC(OCc1ccccc1)C(=O)NCc1ccc(N(C)C)cc1` (configuration not stated), the cytotoxicity at 70.5 h is -12.6%.

For `CN(C)c1cc(CNC(=O)c2cccnc2O)ccn1`, the cytotoxicity at 70.5 h was -12.1%.

For the molecule `Cc1ccc(C(=O)N2CCCC(c3nncn3C)C2)c(C)c1` (configuration not stated), the cytotoxicity at 70.5 h was -4.5%.

With `Cc1nn(C)c(N2CCOCC2)c1CNCc1ccc2c(c1)OCO2`, the cytotoxicity at 70.5 h was -5.61%.

With `O=C(CCc1nccs1)N1CCN(c2ccc(Cl)cn2)CC1`, the cytotoxicity at 70.5 h was -5.57%.

For the molecule `O=C(Cc1ccccn1)N1CCN(C(=O)CC2CCCCC2)CC1`, the cytotoxicity at 70.5 h was -2.98%.

With `Cc1nc(CN2CCCN(C(=O)c3c(C)oc(C)c3C)CC2)cs1`, the cytotoxicity at 70.5 h is -10%.

Turning to `Cc1nn(C)c(N2CCOCC2)c1CNCc1ccc(C(C)O)cc1` (configuration not stated), the cytotoxicity at 70.5 h is -11.7%.

On to `c1cnnc(N2CCCC(NCc3ccncc3)C2)c1` (configuration not stated), for which the cytotoxicity at 70.5 h is -4.07%.

For the molecule `COc1cccc(COCC(=O)N2CCCC(n3cccn3)C2)c1` (configuration not stated), the cytotoxicity at 70.5 h was -4.65%.

`Cc1ccc(N2CCCC(NCc3ccc(-n4ccnc4)cc3)C2)nn1` (configuration not stated): the cytotoxicity at 70.5 h is 17.4%.

As for `FC(F)(F)c1ccc(CN2CCN(Cc3cscn3)CC2)cc1`, the cytotoxicity at 70.5 h was -12.5%.

On to `COc1ccc(OC)c(C(=O)N(C)Cc2ncc(C)c(OC)c2C)c1`, for which the cytotoxicity at 70.5 h is -9%.

Turning to `Cc1ccn2ncc(C(=O)N3CCCC(n4nc(C)nc4C)C3)c2n1` (configuration not stated), the cytotoxicity at 70.5 h is -5.04%.

For `COc1ccc(F)cc1C(=O)N1CCCC(n2nc(C)nc2C)C1` (configuration not stated), the cytotoxicity at 70.5 h is -9.24%.

On to `CCc1nc2n(n1)CC(NCc1nc(-c3cccnc3)no1)CC2` (configuration not stated), for which the cytotoxicity at 70.5 h is -10.5%.

As for `O=C(CCNC(=O)c1ccoc1)Nc1cccc(F)c1`, the cytotoxicity at 70.5 h was -6.83%.

Take `O=C(CCNC(=O)c1ccoc1)Nc1cc(F)ccc1F`: the cytotoxicity at 70.5 h was -5.4%.

Consider `O=C(CCNC(=O)c1ccoc1)Nc1cc(F)cc(F)c1`, for which the cytotoxicity at 70.5 h is -10.4%.

Turning to `Cn1cnnc1C1CCCN(C(=O)c2ccc3c(c2)OCCO3)C1` (configuration not stated), the cytotoxicity at 70.5 h was -4.4%.

With `COCCOc1ccc(NC(=O)N2CCCC2c2cccs2)cn1` (configuration not stated), the cytotoxicity at 70.5 h was -4.81%.

With `Cc1cccc(OCCCNC(=O)NC(C)c2nncn2C)c1` (configuration not stated), the cytotoxicity at 70.5 h is -6.42%.

As to `Cc1nc(NC(=O)CN2CCOC(Cn3cccn3)C2)sc1C` (configuration not stated), the cytotoxicity at 70.5 h is -7.06%.

Take `O=C(COc1cccnc1)N1CCCC(n2cccn2)C1` (configuration not stated): the cytotoxicity at 70.5 h was -2.58%.

For the molecule `Cc1nc(C)n(C2CCCN(C(=O)c3nc(C)n4ccccc34)C2)n1` (configuration not stated), the cytotoxicity at 70.5 h is -9.2%.

Regarding `Cc1nc(C)n(C2CCCN(C(=O)c3cccc4cn[nH]c34)C2)n1` (configuration not stated), the cytotoxicity at 70.5 h was -13.2%.

As to `Cc1nc(C)n(C2CCCN(C(=O)c3cn4c(C)cccc4n3)C2)n1` (configuration not stated), the cytotoxicity at 70.5 h worked out at 19.8%.

For `CCSc1ccc(NC(=O)N2CCCC2c2ccncc2)cn1` (configuration not stated), the cytotoxicity at 70.5 h is -8.21%.

Take `O=C(CN1CCOC(Cn2cccn2)C1)Nc1ccncc1` (configuration not stated): the cytotoxicity at 70.5 h was -3.63%.

As for `Cc1nc2ccccc2nc1CN1CCCC1Cn1cccn1` (configuration not stated), the cytotoxicity at 70.5 h is 20.6%.

As for `Cc1nc(CN2CCCC(N(C)CC(=O)Nc3cccnc3)C2)no1` (configuration not stated), the cytotoxicity at 70.5 h is 15.1%.

Consider `CC(C)c1nc(CN2CCC(CO)CC2)cs1`, for which the cytotoxicity at 70.5 h worked out at 34.5%.

With `CCCN1CCN(C(=O)Cc2nc(-c3ccco3)oc2C)CC1`, the cytotoxicity at 70.5 h is -7.9%.

Take `Cc1nc(CN2CCCC(N(C)Cc3nc(CC(C)C)no3)C2)no1` (configuration not stated): the cytotoxicity at 70.5 h was -9.14%.

`Cc1nc(CN(C)C2CCN(Cc3c(C)noc3C)C2)no1` (configuration not stated): the cytotoxicity at 70.5 h is -8.91%.

As to `CN(Cc1cccc(F)c1)C(=O)CS(=O)(=O)Cc1ccc(Cl)c(Cl)c1`, the cytotoxicity at 70.5 h was -11.2%.

Take `Cc1csc(CNC(=O)NCc2ccc3c(c2)OCCO3)n1`: the cytotoxicity at 70.5 h is -14.3%.

`Cc1csc(CNC(=O)N(C)Cc2ccc3c(c2)OCO3)n1`: the cytotoxicity at 70.5 h was -9.49%.

For `CCOc1ccc(CC(CNC(=O)c2ccoc2C)C(N)=O)cc1` (configuration not stated), the cytotoxicity at 70.5 h was -10.1%.

Turning to `Cc1cccc(CS(=O)(=O)CC(=O)N(C)Cc2ccccc2F)c1`, the cytotoxicity at 70.5 h was -6.9%.

For the molecule `CC(C)c1nccn1C1CCCN(C(=O)c2ccc3[nH]cnc3c2)C1` (configuration not stated), the cytotoxicity at 70.5 h was 8.82%.

For `CCCc1ccc(C(=O)N2CCn3c(nnc3C(C)C)C2)cc1`, the cytotoxicity at 70.5 h was -5.86%.

Turning to `O=C(Nc1cc(F)ccc1OCC1CCCO1)c1ccoc1` (configuration not stated), the cytotoxicity at 70.5 h was -2.66%.

As to `COCCn1cc(C(=O)N2CCCC(n3cncn3)C2)ccc1=O` (configuration not stated), the cytotoxicity at 70.5 h was 8.17%.

In the case of `O=C(Nc1ccccc1OCC1CCCCO1)c1ccc(O)nc1` (configuration not stated), the cytotoxicity at 70.5 h is -13%.

Take `COCc1nc(CN2CCOC(CN(C)c3cccnn3)C2)cs1` (configuration not stated): the cytotoxicity at 70.5 h turned out to be 2.04%.

Take `COc1ccc(-c2noc(CN3CC(n4cccn4)C3)n2)c(OC)c1`: the cytotoxicity at 70.5 h is -7.32%.

As for `Cc1nc(C)c(CN2CCOC(CN(C)c3cccnn3)C2)s1` (configuration not stated), the cytotoxicity at 70.5 h is -8.03%.

As for `CCc1nnsc1C(=O)N1CCCN(Cc2ccc(F)cc2)CC1`, the cytotoxicity at 70.5 h is -9.04%.

With `CCc1nnsc1C(=O)N1CCCN(Cc2cnn(CC)c2)CC1`, the cytotoxicity at 70.5 h was -7.53%.

On to `O=C(Cc1ccc2c(c1)OCCO2)N1CCCC(n2cncn2)C1` (configuration not stated), for which the cytotoxicity at 70.5 h is -9.12%.

Regarding `CCc1nc(C)c(C(=O)N2CCCN(Cc3cnn(C)c3)CC2)s1`, the cytotoxicity at 70.5 h was -9%.

For `Cc1nc(C2CCCN2Cc2nnc(Cc3ccccc3)o2)no1` (configuration not stated), the cytotoxicity at 70.5 h was found to be 2.42%.

On to `Cc1nnc(N2CCC(CCN(C)C)CC2)c(C#N)c1C`, for which the cytotoxicity at 70.5 h was -11.2%.

Take `CN(Cc1nc(N)c2ccccc2n1)CC1CCCN1c1cccnn1` (configuration not stated): the cytotoxicity at 70.5 h was -16.6%.

`Cn1ccc(C(=O)N2CCCC(n3cncn3)C2)cc1=O` (configuration not stated): the cytotoxicity at 70.5 h is -10.3%.

`O=C(c1cc[nH]n1)N1CCC(Nc2cccnn2)CC1`: the cytotoxicity at 70.5 h was found to be 14.8%.

Take `CC(C(=O)NCc1ccc(-n2cncn2)nc1)n1ccnc1` (configuration not stated): the cytotoxicity at 70.5 h was -18%.

On to `CCc1nnc(CN2CCN(C(=O)c3cc4ccccc4[nH]3)CC2)o1`, for which the cytotoxicity at 70.5 h was -3.19%.

Consider `Cc1oc(-c2ccco2)nc1CC(=O)N1CCC(C(O)C(F)(F)F)CC1` (configuration not stated), for which the cytotoxicity at 70.5 h is -18.3%.

`COc1ccccc1CC1CCCN(CC(=O)N2CCOCC2)C1` (configuration not stated): the cytotoxicity at 70.5 h was -6.05%.

Consider `CCc1nnsc1C(=O)N1CCCN(Cc2nccn2C)CC1`, for which the cytotoxicity at 70.5 h is -21.7%.

Turning to `CCc1nnsc1C(=O)N1CCCN(Cc2cnn(C)c2)CC1`, the cytotoxicity at 70.5 h was -27.3%.

For `CN(Cc1ncc(-c2ccccc2)o1)CC1CCCN1c1cccnn1` (configuration not stated), the cytotoxicity at 70.5 h was -10.2%.

Regarding `Cc1nc(C)n(CC2CCCCN2CC(=O)N(C)Cc2ccco2)n1` (configuration not stated), the cytotoxicity at 70.5 h was -1.35%.

On to `CCc1nc(CN2CCCN(C(=O)c3cn[nH]c3CC)CC2)cs1`, for which the cytotoxicity at 70.5 h was 12.4%.

As to `Cc1n[nH]c(=O)c2c(NC(=O)CN3CCC(O)CC3)oc(C)c12`, the cytotoxicity at 70.5 h stood at 7.13%.

Consider `Cc1ccc(NC(=O)C(C)N2CCCN(c3nccs3)CC2)c(C)c1` (configuration not stated), for which the cytotoxicity at 70.5 h was -7.1%.

With `Cc1ccccc1CN(C)Cc1nc2c(cnn2C)c(=O)[nH]1`, the cytotoxicity at 70.5 h is -7.81%.

Consider `O=C(NCCn1nc2ccccn2c1=O)c1cccc2[nH]ncc12`, for which the cytotoxicity at 70.5 h is -16.6%.

As to `CN(Cc1nc2c(cnn2C)c(=O)[nH]1)Cc1ccc(F)cc1F`, the cytotoxicity at 70.5 h is -10.6%.

For `Cc1ccc2cc(C(=O)NCCn3nc4ccccn4c3=O)[nH]c2c1`, the cytotoxicity at 70.5 h stood at 8.99%.

With `CC(C(=O)Nc1ncccn1)N1CCCN(c2nccs2)CC1` (configuration not stated), the cytotoxicity at 70.5 h is -13.8%.

Regarding `COc1ccc(F)cc1C(=O)N(C)Cc1cc(C)on1`, the cytotoxicity at 70.5 h is -15.7%.

With `CCc1nnc2n1CCN(Cc1csc(-c3ccc(C)o3)n1)C2`, the cytotoxicity at 70.5 h was -33.2%.

Consider `CC(C)(C)C(O)CN1CCN(C(=O)c2cccc3[nH]ncc23)CC1` (configuration not stated), for which the cytotoxicity at 70.5 h is -3.16%.

Regarding `CCc1nc(CN2CCCN(C(=O)CCSC)CC2)cs1`, the cytotoxicity at 70.5 h is -15.8%.

For `COCc1cccc(NS(=O)(=O)c2cc(C(=O)O)cs2)c1`, the cytotoxicity at 70.5 h was -12.7%.

With `COc1ccccc1OCCNCc1c(C)nn(C)c1N(C)C`, the cytotoxicity at 70.5 h is -3.32%.

With `c1cnc(N2CCCC(NCc3ccc(-n4ccnc4)cc3)C2)nc1` (configuration not stated), the cytotoxicity at 70.5 h was -4.91%.
